# Target: T1, influenza A virus (IAV) PA-Nter fragment (amino acids 1-209) harbouring the influenza endonuclease activity (Influenza A virus, UniProt P31343)
# T1 construct: PA-Nter fragment (amino acids 1-209); made in house
# Test: FRET endonuclease activity assay
# Assay type: biochemical
# Conditions: @ 10 μM; compound-treated compared to untreated
row,SMILES,FRET % reduction of v0 [% @ 10 μM]
1,O=C(NCc1ccc(Cl)cc1)c1nc(Cc2ccccc2Br)nc(O)c1O,37
2,COC(=O)c1c(O)c(=O)nc(Cc2ccccc2Br)n1Cc1ccccc1,23
3,COC(=O)c1nc(CC2CCCCC2)n(C)c(=O)c1O,25

# Same assay, conditions: calculated from initial reaction velocities (v0); 0.5 μM PA-Nter, 1.6 μM RNA substrate
row,SMILES,IC50 [nM]
1,NC(=O)c1nc(Cc2ccc(F)cc2Br)nc(O)c1O,2700
2,O=C(NCc1ccc(Cl)cc1)c1nc(Cc2ccccc2-c2ccccc2)nc(O)c1O,1800
3,CC(C)NC(=O)c1nc(Cc2cccc(Br)c2)nc(O)c1O,23000
4,Cc1ccccc1Cc1nc(O)c(O)c(C(=O)O)n1,270
5,CNC(=O)c1nc(Cc2ccccc2-c2ccccc2)nc(O)c1O,660
6,O=C(O)c1c(O)c(=O)nc(Cc2ccccc2)n1Cc1ccccc1,3800
7,CNC(=O)c1nc(NS(=O)(=O)Cc2ccc(C)cc2)n(C)c(=O)c1O,13000
8,O=C(NCc1ccc(F)cc1)c1nc(Cc2ccccc2Br)nc(O)c1O,27000
9,Cc1ccc(C)c(-c2ccccc2Cc2nc(O)c(O)c(C(=O)OC(C)(C)C)n2)c1,1100
10,O=C(c1nc(Cc2ccccc2-c2ccccc2)nc(O)c1O)N1CCCC1,1100
11,COC(=O)c1nc(Cc2ccccc2-c2cc(C)ccc2C)nc(O)c1O,150
12,Cc1ccccc1-c1ccccc1Cc1nc(O)c(O)c(C(=O)O)n1,240
13,COC(=O)c1nc(Cc2ccccc2Br)nc(O)c1OC(C)=O,7900
14,CNC(=O)c1nc(Cc2ccccc2-c2cc(C)ccc2C)nc(O)c1O,530
15,CNC(=O)c1nc(CC2(c3ccccc3)CCCC2)n(C)c(=O)c1O,410
16,CCOC(=O)c1nc(CC2CCCCC2)nc(O)c1O,3200
17,O=C(O)c1nc(CC(c2ccccc2)c2ccccc2)nc(O)c1O,2500
18,O=C(NCCc1ccccc1)c1nc(Cc2ccccc2-c2ccccc2)nc(O)c1O,3800
19,CC(C)NC(=O)c1nc(Cc2ccccc2-c2ccccc2)nc(O)c1O,8200
20,O=C(O)c1nc(Cc2cc(C(F)(F)F)ccc2Br)nc(O)c1O,160
21,COC(=O)c1nc(Cc2ccccc2-c2cccc(C)c2)nc(O)c1O,350
22,COC(=O)c1nc(Cc2ccccc2-c2ccccc2C)nc(O)c1O,120
23,Cc1cccc(-c2ccccc2Cc2nc(C(N)=O)c(O)c(=O)[nH]2)c1,550
24,Cc1cccc(-c2ccccc2Cc2nc(O)c(O)c(C(=O)O)n2)c1,230
25,CNC(=O)c1nc(NS(=O)(=O)Cc2ccccc2)n(C)c(=O)c1O,3000
26,O=C(NCc1ccccc1)c1nc(Cc2ccccc2-c2ccccc2)nc(O)c1O,16000
27,O=C(O)c1c(O)c(=O)nc(Cc2ccccc2Br)n1Cc1ccccc1,5700

row,SMILES,IC50 [nM]
1,NC(=O)c1nc(CC2(c3ccccc3)CCCC2)nc(O)c1O,240
2,CCCNC(=O)c1nc(Cc2ccccc2-c2ccccc2)nc(O)c1O,8800
3,Cn1c(Cc2ccccc2-c2ccccc2)nc(C(=O)O)c(O)c1=O,1300
4,CNC(=O)c1nc(NS(=O)(=O)Cc2ccc(Cl)cc2)n(C)c(=O)c1O,5800
5,CNC(=O)c1nc(CC2CCCCC2)nc(O)c1O,6500
6,COC(=O)c1c(O)c(=O)nc(Cc2ccccc2)n1Cc1ccccc1,19000
7,O=C(O)c1nc(CC2(c3ccccc3)CCCC2)nc(O)c1O,80
8,CNC(=O)c1nc(CC2(c3ccccc3)CCCC2)nc(O)c1O,140
9,CNC(=O)c1nc(NS(=O)(=O)Cc2cccc(C)c2)n(C)c(=O)c1O,6800
10,O=C(NCc1ccc(F)cc1)c1nc(Cc2ccccc2-c2ccccc2)nc(O)c1O,1700
11,CC(C)NC(=O)c1nc(Cc2ccccc2-c2ccccc2)n(C)c(=O)c1O,14000
12,O=C(NCc1ccccc1)c1nc(CC2(c3ccccc3)CCCC2)nc(O)c1O,1100
13,Cn1c(Cc2ccccc2-c2ccccc2)nc(C(N)=O)c(O)c1=O,1300
14,O=C(O)c1nc(Cc2ccccc2-c2ccccc2)nc(O)c1O,40
15,O=C(O)c1nc(Cc2ccc(F)cc2Br)nc(O)c1O,180
16,CNC(=O)c1nc(Cc2ccccc2Br)nc(O)c1O,5700
17,COC(=O)c1nc(CC2(c3ccccc3)CCCC2)nc(O)c1O,410
18,CCOC(=O)c1nc(Cc2cncn2Cc2ccccc2)nc(O)c1O,9500
19,COC(=O)c1nc(Cc2ccc(F)cc2Br)nc(O)c1O,1500
20,Cn1c(CC2(c3ccccc3)CCCC2)nc(C(=O)O)c(O)c1=O,260
21,O=C(O)c1nc(Cc2ccccc2Br)nc(O)c1O,250
22,O=C(O)c1nc(CC2CCCCC2)nc(O)c1O,210
23,Cn1c(NS(=O)(=O)Cc2ccc(Cl)cc2)nc(C(=O)O)c(O)c1=O,540
24,Cc1ccc(C)c(-c2ccccc2Cc2nc(O)c(O)c(C(=O)O)n2)c1,30
25,CNC(=O)c1nc(Cc2ccccc2-c2ccccc2)n(C)c(=O)c1O,23000
26,CCOC(=O)c1nc(Cc2ccccc2-c2cc(C)ccc2C)nc(O)c1O,220
